Measured values taken from patent US7608629B2, “(Piperidinyloxy)phenyl, (piperidinyloxy)pyridinyl, (piperidinylsulfanyl)phenyl and (piperidinylsulfanyl)pyridinyl compounds as 5-HT1F agonists” (Eli Lilly and Company, priority 2003, dated 2009).
pEC50: −log10 of the molar value. Where a name gives a salt, the structure may show the parent alone.

Key:
rabbit saphenous vein = test: Rabbit saphenous vein contraction
Description: Representative compounds of the present invention were tested in a rabbit saphenous vein contraction assay to measure their ability to mediate vasoconstriction. […] The tips of two 30-gauge stainless steel hypodermic needles bent into an L-shape were slipped into the polyethylene tubing. Vessels were gently pushed from the cannula onto the needles. The needles were then separated so that the lower one was attached with thread to a stationary glass rod and the upper one was tied with thread to the transducer. […] An initial optimum resting force of 1 gm was applied to the saphenous vein. Isometric contractions were recorded as changes in grams of force on a Beckman Dynograph with Statham UC-3 transducers and microscale accessory attachments. Tissues were allowed to equilibrate 1 to 2 hours before exposure to drugs. Cumulative agonist concentration-response curves were generated in tissues and no tissue was used to generate more than two agonist concentration-response curves. […] This vasoconstriction assay measures two important parameters, saphenous vein contraction (EC50) and maximal contraction as a % maximal KCl response (% man KCl).

CN1CCC(Oc2cccc(NC(=O)c3ccccc3Br)c2)CC1.Cl
melting point: 269 °C (dec.)

CN1CCC(Oc2cccc(NC(=O)c3c(F)cccc3F)n2)CC1.Cl
melting point: 261.4 °C

CN1CCC(Oc2cccc(NC(=O)c3c(F)cccc3Cl)n2)CC1.Cl
melting point: 139.6 °C

CN1CCC(Oc2cc(NC(=O)c3c(F)cc(F)cc3F)ccc2Cl)CC1.Cl
melting point: > 270 °C

C[C@H]1C[C@H](Oc2cc(NC(=O)c3ccc(F)cc3Cl)ccc2C(C)(C)C)CCN1C.Cl (single isomer, unassigned)
melting point: 260 °C

C[C@H]1CN(C)CC[C@H]1Oc1cccc(NC(=O)C2=CC=C(F)CC2Cl)n1 (single isomer, unassigned) (as salt: salt)
melting point: 238 °C

CN1CCC(Oc2cccc(NC(=O)c3ccccc3C(F)(F)F)c2)CC1.Cl
melting point: 135 to 136 °C

CN1CCC(Oc2cc(NC(=O)c3ccccc3Br)ccc2Cl)CC1.Cl
melting point: 146 to 148 °C

CN1CCC(Oc2cccc(NC(=O)c3ccc(F)cc3Cl)n2)CC1.Cl (hydrate or solvate)
melting point: 135 to 137 °C

CN1CCC(Oc2cccc(NC(=O)C3CCCCC3)c2)CC1.Cl
melting point: 141 to 142 °C

CN1CCC(Oc2cccc(NC(=O)c3ccc(F)c(F)c3F)n2)CC1.Cl
melting point: 182.4 °C (dec.)

CN1CCC(Oc2cccc(NC(=O)c3ccc(F)cc3)n2)CC1.Cl (hydrate or solvate)
melting point: 203 to 205 °C

CN1CCC(Oc2cccc(NC(=O)c3c(F)cccc3Cl)c2)CC1.Cl
melting point: 153 to 154 °C

CN1CCC(Oc2cccc(NC(=O)c3ccccc3Cl)n2)CC1.Cl (hydrate or solvate)
melting point: 88 to 90 °C

CN1CCC(Oc2cc(NC(=O)c3c(F)cccc3F)ccc2Cl)CC1.Cl
melting point: 261 °C (dec.)

CN1CCC(Oc2cc(NC(=O)c3ccccc3OC(F)(F)F)ccc2Cl)CC1.Cl
melting point: 95 to 97 °C

CN1CCC(Oc2cc(NC(=O)c3c(F)cccc3Cl)ccc2Cl)CC1.Cl
melting point: 259 to 260 °C

CN1CCC(Oc2cccc(NC(=O)c3ccccc3Br)n2)CC1.Cl
melting point: 104.3 °C

CN1CCC(Oc2cccc(NC(=O)c3ccc(Cl)cc3Cl)c2)CC1.Cl
melting point: 131 to 133 °C

CCN1CCC(Oc2cccc(NC(=O)c3c(F)cccc3Cl)c2)CC1.Cl
melting point: 262 °C (dec.)

CC1CN(C)CCC1Oc1cccc(NC(=O)c2ccc(F)cc2Cl)n1.Cl (stereo not drawn)
melting point: 155 to 160 °C

C[C@H]1C[C@@H](Oc2cccc(NC(=O)c3ccc(F)cc3Cl)c2)CCN1C.Cl (single isomer, unassigned)
melting point: 152 °C

CN1CCC(Oc2cc(NC(=O)c3ccc(F)cc3F)ccc2Cl)CC1.Cl
melting point: 257 °C (dec.)

C[C@H]1C[C@H](Oc2cccc(NC(=O)c3ccc(F)cc3Cl)c2)CCN1C.Cl (single isomer, unassigned)
melting point: 145 °C

CN1CCC(Oc2cccc(NC(=O)c3ccc(F)cc3)n2)CC1(C)C (stereo not drawn) (as salt: salt)
melting point: 145 °C

CNS(=O)(=O)Cc1ccc2[nH]cc(CCN(C)C)c2c1 [sumatriptan]
corrected vasoconstriction EC50 (EC50 divided by %max KCl) (rabbit saphenous vein): 10.3 nM
pEC50 (rabbit saphenous vein; Oryctolagus cuniculus): 6.18

CCN1CCC(Oc2cccc(NC(=O)c3ccc(F)cc3Cl)c2)CC1.Cl
melting point: 91 °C

CN1CCC(Oc2cccc(NC(=O)c3ccccc3OC(F)(F)F)c2)CC1.Cl
melting point: 119 to 121 °C

CN1CCC(Oc2cccc(NC(=O)c3cc(F)c(F)c(F)c3)n2)CC1.Cl
melting point: 171.4 °C (dec.)

CN1CCC(Oc2cccc(NC(=O)c3c(F)cc(F)cc3F)c2)CC1.Cl
melting point: 136 °C (dec.)

CN1CCC(Oc2cccc(NC(=O)c3cccnc3)c2)CC1.Cl
melting point: 73 to 74 °C

CN1CCC(Oc2cc(NC(=O)c3ccccc3Cl)ccc2Cl)CC1.Cl
melting point: 259 °C (dec.)

CN1CCC(Oc2cccc(NC(=O)c3c(F)cc(F)cc3F)n2)CC1.Cl
melting point: 264 to 266 °C

CN1CCC(Oc2cccc(NC(=O)c3ccc(F)cc3Cl)c2)CC1.Cl
melting point: 213 °C

Cl.O=C(Nc1cccc(OC2CCNCC2)n1)c1ccc(F)cc1 (hydrate or solvate)
melting point: 251 to 253 °C

CN1CCC(Oc2cccc(NC(=O)c3ccccc3OC(F)(F)F)n2)CC1.Cl
melting point: 88.7 °C

C[C@@H]1CN(C)CC[C@@H]1Oc1cccc(NC(=O)C2=CC=C(F)CC2Cl)n1 (single isomer, unassigned) (as salt: salt)
melting point: 238 °C

CC(C)C(=O)Nc1cccc(OC2CCN(C)CC2)c1.Cl
melting point: 104 to 105 °C

CN1CCC(Oc2cccc(NC(=O)c3c(Cl)cccc3Cl)c2)CC1.Cl
melting point: 170 to 171 °C

CN1CCC(Oc2cccc(NC(=O)c3ccncc3)c2)CC1.Cl
melting point: 172 to 175 °C

CN1CCC(Oc2cc(F)cc(NC(=O)c3ccc(F)cc3)c2)CC1.Cl
melting point: 150 °C

CN1CCC(Oc2cccc(NC(=O)c3c(F)cccc3F)c2)CC1.Cl
melting point: 136 to 138 °C

CN1CCC(Oc2cccc(NC(=O)c3ccc(F)cc3F)n2)CC1.Cl (hydrate or solvate)
melting point: 269 to 271 °C

CN1CCC(Oc2cccc(NC(=O)c3ccncc3)n2)CC1.Cl (hydrate or solvate)
melting point: 254 to 256 °C
